# Test results: PMC5224920, “Assessing the mechanism and therapeutic potential of modulators of the human Mediator complex-associated protein kinases” (eLife, 2016)
# System: 12 single or co-culture in vitro tissue models of primary cells
# Assay: Culture/co-culture cell model panel, extracellular biomarkers (DiscoveRx); for CCL2/MCP-1: reference of the scale not given here; for CD141/Thrombomodulin: reference of the scale not given here; for CD142/Tissue Factor: reference of the scale not given here; for CXCL8/IL-8: reference of the scale not given here; for CXCL9/MIG: reference of the scale not given here; for M-CSF: reference of the scale not given here; for SRB: reference of the scale not given here
# Format: cell-based, human
# [1] = /HDFNo unstimulated fibroblasts, 1.00E0 nM
# [2] = /HDFNo unstimulated fibroblasts, 1.00E1 nM
# [3] = /HDFNo unstimulated fibroblasts, 1.00E2 nM
# [4] = /HDFNo unstimulated fibroblasts, 1.00E3 nM
# [5] = /HDFNo unstimulated fibroblasts, 1.00E4 nM
smiles,measurement,setting,value
Cn1ncc2cc(-c3cnc(N)c(Cl)c3N3CCC4(CCNC4=O)CC3)ccc21 [CMPD 3],CCL2/MCP-1,"3C, 1.00E0 nM",0.030
same,CD54/ICAM-1,"3C, 1.00E0 nM",-0.007
same,CD87/uPAR,"3C, 1.00E0 nM",-0.138
same,CD106/VCAM-1,"3C, 1.00E0 nM",0.033
same,CD141/Thrombomodulin,"3C, 1.00E0 nM",0.044
same,CD142/Tissue Factor,"3C, 1.00E0 nM",0.040
same,CXCL8/IL-8,"3C, 1.00E0 nM",0.00749
same,CXCL9/MIG,"3C, 1.00E0 nM",0.008
same,HLA-DR,"3C, 1.00E0 nM",-0.007
same,Proliferation,"3C, 1.00E0 nM",-0.065
same,SRB,"3C, 1.00E0 nM",-0.049
same,CCL2/MCP-1,"3C, 1.00E1 nM",-0.022
same,CD54/ICAM-1,"3C, 1.00E1 nM",-0.036
same,CD87/uPAR,"3C, 1.00E1 nM",-0.247
same,CD106/VCAM-1,"3C, 1.00E1 nM",0.039
same,CD141/Thrombomodulin,"3C, 1.00E1 nM",0.072
same,CD142/Tissue Factor,"3C, 1.00E1 nM",0.133
same,CXCL8/IL-8,"3C, 1.00E1 nM",-0.095
same,CXCL9/MIG,"3C, 1.00E1 nM",-0.00373
same,HLA-DR,"3C, 1.00E1 nM",-0.076
same,Proliferation,"3C, 1.00E1 nM",-0.054
same,SRB,"3C, 1.00E1 nM",-0.076
same,CCL2/MCP-1,"3C, 1.00E2 nM",-0.124
same,CD54/ICAM-1,"3C, 1.00E2 nM",-0.048
same,CD87/uPAR,"3C, 1.00E2 nM",-0.349
same,CD106/VCAM-1,"3C, 1.00E2 nM",0.034
same,CD141/Thrombomodulin,"3C, 1.00E2 nM",0.056
same,CD142/Tissue Factor,"3C, 1.00E2 nM",0.139
same,CXCL8/IL-8,"3C, 1.00E2 nM",-0.180
same,CXCL9/MIG,"3C, 1.00E2 nM",-0.007
same,HLA-DR,"3C, 1.00E2 nM",-0.144
same,Proliferation,"3C, 1.00E2 nM",-0.088
same,SRB,"3C, 1.00E2 nM",-0.094
same,CCL2/MCP-1,"3C, 1.00E3 nM",-0.168
same,CD54/ICAM-1,"3C, 1.00E3 nM",-0.045
same,CD87/uPAR,"3C, 1.00E3 nM",-0.370
same,CD106/VCAM-1,"3C, 1.00E3 nM",0.037
same,CD141/Thrombomodulin,"3C, 1.00E3 nM",0.050
same,CD142/Tissue Factor,"3C, 1.00E3 nM",0.150
same,CXCL8/IL-8,"3C, 1.00E3 nM",-0.301
same,CXCL9/MIG,"3C, 1.00E3 nM",-0.026
same,HLA-DR,"3C, 1.00E3 nM",-0.148
same,Proliferation,"3C, 1.00E3 nM",-0.102
same,SRB,"3C, 1.00E3 nM",-0.099
same,CCL2/MCP-1,"3C, 1.00E4 nM",-0.253
same,CD54/ICAM-1,"3C, 1.00E4 nM",-0.033
same,CD87/uPAR,"3C, 1.00E4 nM",-0.407
same,CD106/VCAM-1,"3C, 1.00E4 nM",0.036
same,CD141/Thrombomodulin,"3C, 1.00E4 nM",0.036
same,CD142/Tissue Factor,"3C, 1.00E4 nM",0.224
same,CXCL8/IL-8,"3C, 1.00E4 nM",-0.302
same,CXCL9/MIG,"3C, 1.00E4 nM",-0.020
same,HLA-DR,"3C, 1.00E4 nM",-0.278
same,Proliferation,"3C, 1.00E4 nM",-0.404
same,SRB,"3C, 1.00E4 nM",-0.222
same,CCL2/MCP-1,"/HDF3CT, 1.00E0 nM",-0.010
same,CD54/ICAM-1,"/HDF3CT, 1.00E0 nM",-0.008
same,CD106/VCAM-1,"/HDF3CT, 1.00E0 nM",0.026
same,CXCL8/IL-8,"/HDF3CT, 1.00E0 nM",-0.039
same,CXCL9/MIG,"/HDF3CT, 1.00E0 nM",0.020
same,CXCL10/IP-10,"/HDF3CT, 1.00E0 nM",0.003
same,Collagen I,"/HDF3CT, 1.00E0 nM",0.036
same,M-CSF,"/HDF3CT, 1.00E0 nM",0.008
same,MMP-1,"/HDF3CT, 1.00E0 nM",0.097
same,PAI-I,"/HDF3CT, 1.00E0 nM",0.039
same,SRB,"/HDF3CT, 1.00E0 nM",0.007
same,TIMP-2,"/HDF3CT, 1.00E0 nM",0.070
same,CCL2/MCP-1,"/HDF3CT, 1.00E1 nM",-0.048
same,CD54/ICAM-1,"/HDF3CT, 1.00E1 nM",-0.062
same,CD106/VCAM-1,"/HDF3CT, 1.00E1 nM",0.0026
same,CXCL8/IL-8,"/HDF3CT, 1.00E1 nM",-0.028
same,CXCL9/MIG,"/HDF3CT, 1.00E1 nM",0.010
same,CXCL10/IP-10,"/HDF3CT, 1.00E1 nM",0.017
same,Collagen I,"/HDF3CT, 1.00E1 nM",0.021
same,M-CSF,"/HDF3CT, 1.00E1 nM",-0.050
same,MMP-1,"/HDF3CT, 1.00E1 nM",0.095
same,PAI-I,"/HDF3CT, 1.00E1 nM",-0.027
same,SRB,"/HDF3CT, 1.00E1 nM",-0.007
same,TIMP-2,"/HDF3CT, 1.00E1 nM",0.045
same,CCL2/MCP-1,"/HDF3CT, 1.00E2 nM",-0.069
same,CD54/ICAM-1,"/HDF3CT, 1.00E2 nM",-0.067
same,CD106/VCAM-1,"/HDF3CT, 1.00E2 nM",0.015
same,CXCL8/IL-8,"/HDF3CT, 1.00E2 nM",-0.099
same,CXCL9/MIG,"/HDF3CT, 1.00E2 nM",-0.022
same,CXCL10/IP-10,"/HDF3CT, 1.00E2 nM",0.012
same,Collagen I,"/HDF3CT, 1.00E2 nM",0.00367
same,M-CSF,"/HDF3CT, 1.00E2 nM",-0.024
same,MMP-1,"/HDF3CT, 1.00E2 nM",0.086
same,PAI-I,"/HDF3CT, 1.00E2 nM",-0.074
same,SRB,"/HDF3CT, 1.00E2 nM",-0.023
same,TIMP-2,"/HDF3CT, 1.00E2 nM",0.070
same,CCL2/MCP-1,"/HDF3CT, 1.00E3 nM",-0.111
same,CD54/ICAM-1,"/HDF3CT, 1.00E3 nM",-0.061
same,CD106/VCAM-1,"/HDF3CT, 1.00E3 nM",0.021
same,CXCL8/IL-8,"/HDF3CT, 1.00E3 nM",-0.189
same,CXCL9/MIG,"/HDF3CT, 1.00E3 nM",-0.040
same,CXCL10/IP-10,"/HDF3CT, 1.00E3 nM",0.00333
same,Collagen I,"/HDF3CT, 1.00E3 nM",0.027
same,M-CSF,"/HDF3CT, 1.00E3 nM",-0.00149
same,MMP-1,"/HDF3CT, 1.00E3 nM",0.040
same,PAI-I,"/HDF3CT, 1.00E3 nM",-0.123
same,SRB,"/HDF3CT, 1.00E3 nM",0.00334
same,TIMP-2,"/HDF3CT, 1.00E3 nM",0.107
same,CCL2/MCP-1,"/HDF3CT, 1.00E4 nM",-0.053
same,CD54/ICAM-1,"/HDF3CT, 1.00E4 nM",-0.081
same,CD106/VCAM-1,"/HDF3CT, 1.00E4 nM",0.009
same,CXCL8/IL-8,"/HDF3CT, 1.00E4 nM",-0.144
same,CXCL9/MIG,"/HDF3CT, 1.00E4 nM",-0.049
same,CXCL10/IP-10,"/HDF3CT, 1.00E4 nM",-0.00029
same,Collagen I,"/HDF3CT, 1.00E4 nM",0.010
same,M-CSF,"/HDF3CT, 1.00E4 nM",-0.092
same,MMP-1,"/HDF3CT, 1.00E4 nM",0.107
same,PAI-I,"/HDF3CT, 1.00E4 nM",-0.208
same,SRB,"/HDF3CT, 1.00E4 nM",-0.230
same,TIMP-2,"/HDF3CT, 1.00E4 nM",0.271
same,CXCL8/IL-8,[1],0.059
same,CXCL9/MIG,[1],0.119
same,CXCL10/IP-10,[1],0.034
same,CXCL11/I-TAC,[1],0.074
same,EGFR,[1],0.022
same,M-CSF,[1],0.066
same,MMP-1,[1],0.081
same,PAI-I,[1],0.044
same,Proliferation_72hr,[1],-0.013
same,SRB,[1],0.039
same,TIMP-1,[1],0.047
same,TIMP-2,[1],0.100
same,CXCL8/IL-8,[2],0.037
same,CXCL9/MIG,[2],0.058
same,CXCL10/IP-10,[2],0.054
same,CXCL11/I-TAC,[2],-0.002
same,EGFR,[2],0.009
same,M-CSF,[2],0.048
same,MMP-1,[2],0.040
same,PAI-I,[2],-0.042
same,Proliferation_72hr,[2],0.000939
same,SRB,[2],0.011
same,TIMP-1,[2],0.040
same,TIMP-2,[2],0.045
same,CXCL8/IL-8,[3],0.041
same,CXCL9/MIG,[3],0.091
same,CXCL10/IP-10,[3],0.056
same,CXCL11/I-TAC,[3],-0.021
same,EGFR,[3],0.019
same,M-CSF,[3],0.020
same,MMP-1,[3],0.030
same,PAI-I,[3],-0.011
same,Proliferation_72hr,[3],0.020
same,SRB,[3],-0.014
same,TIMP-1,[3],-0.015
same,TIMP-2,[3],0.091
same,CXCL8/IL-8,[4],0.013
same,CXCL9/MIG,[4],0.053
same,CXCL10/IP-10,[4],0.0016
same,CXCL11/I-TAC,[4],-0.010
same,EGFR,[4],0.012
same,M-CSF,[4],-0.000464
same,MMP-1,[4],0.050
same,PAI-I,[4],-0.034
same,Proliferation_72hr,[4],0.048
same,SRB,[4],-0.021
same,TIMP-1,[4],0.010
same,TIMP-2,[4],0.080
same,CXCL8/IL-8,[5],0.011
same,CXCL9/MIG,[5],-0.074
same,CXCL10/IP-10,[5],-0.076
same,CXCL11/I-TAC,[5],0.023
same,EGFR,[5],0.045
same,M-CSF,[5],0.010
same,MMP-1,[5],0.054
same,PAI-I,[5],-0.028
same,Proliferation_72hr,[5],0.002
same,SRB,[5],-0.00187
same,TIMP-1,[5],-0.007
same,TIMP-2,[5],0.202
same,CCL2/MCP-1,"/HDFNo, 1.00E0 nM",0.028
same,CD54/ICAM-1,"/HDFNo, 1.00E0 nM",0.066
same,CD106/VCAM-1,"/HDFNo, 1.00E0 nM",0.114
same,Collagen I,"/HDFNo, 1.00E0 nM",0.082
same,Collagen III,"/HDFNo, 1.00E0 nM",0.065
same,CCL2/MCP-1,"/HDFNo, 1.00E1 nM",0.027
same,CD54/ICAM-1,"/HDFNo, 1.00E1 nM",0.074
same,CD106/VCAM-1,"/HDFNo, 1.00E1 nM",0.048
same,Collagen I,"/HDFNo, 1.00E1 nM",0.041
same,Collagen III,"/HDFNo, 1.00E1 nM",0.032
same,CCL2/MCP-1,"/HDFNo, 1.00E2 nM",0.042
same,CD54/ICAM-1,"/HDFNo, 1.00E2 nM",-0.013
same,CD106/VCAM-1,"/HDFNo, 1.00E2 nM",0.065
same,Collagen I,"/HDFNo, 1.00E2 nM",0.061
same,Collagen III,"/HDFNo, 1.00E2 nM",0.079
same,CCL2/MCP-1,"/HDFNo, 1.00E3 nM",0.025
same,CD54/ICAM-1,"/HDFNo, 1.00E3 nM",0.014
same,CD106/VCAM-1,"/HDFNo, 1.00E3 nM",0.026
same,Collagen I,"/HDFNo, 1.00E3 nM",0.099
same,Collagen III,"/HDFNo, 1.00E3 nM",0.101
